From patent US5114926A, “Tetrapeptide inhibiting the entry into cycle of hemopoietic stem cells processes for its preparation, and its uses” (Institut National De La Sante Et De La Recherche Medicale, priority 1986, dated 1992)
Values joined by “and” are separate entries in the source; they are usually repeats but may differ in a detail not shown here. Equal entries are not always repeated. Where a SMILES comes first, the peptide text is derived from it.

Legend:
[1] = tested on: CFU-S; experiment: in vivo inhibition of the entry into cycle of the CFU-S induced by an injection of Ara-C; parameters: species or system mice of Balb/C or CBA strain; settings: for % of CFU-S in DNA synthesis: protocol II, i.p.; for biological activity compared with the natural peptide: synthetic versus natural peptide, tables I, II and III
Description: The biological activity of the fractions is measured by in vivo inhibition tests of the entry into cycle of the CFU-S, induced by an injection of Ara-C.
The CFU-S of the mouse, normally quiescent, enter into cycle after an injection of Ara-C.
The number of CFU-S is determined by the technique of J. E. Till and E. A. McCulloch, Radiat. Res. 14, (1961), 213-222, whose principle rests on the capacity of CFU-S to form macroscopic colonies in the spleen. These colonies are clones descended from one CFU-S.
The proportion of CFU-S in S phase is determined by the method of A. J. Becker et al., Blood, 26, (1965), 296-308, based on the principle of cellular suicides. The incubation of the cells with a tritiated thymidine (precursor of DNA) solution leads to the selective death of the cells in phase of DNA synthesis by integration of a lethal dose of radioactivity (tritium) into the DNA molecule.
The tests are performed on SPF (Specific Pathogen Ffree)mice of Balb/C or CBA strain, aged from 2 to 3 months.
1. The control groups receive by the i.p. route the following treatment:
Time 0: Ara-C (10 mg--protocol I or 20 mg--protocol II) dissolved in 0.2 ml of saline;
Time 6H: 0.2 ml of saline;
Time 8H: sacrifice (protocol I);
Time 12H: sacrifice (protocol II).
2. The treated groups receive by the i.p. route:
Time 0: Ara-C (10 mg--protocol I or 20 mg--protocol II) dissolved in 0.2 ml of saline.
Time 6h: fraction to be tested dissolved in 0.2 ml of saline;
Time 8H: sacrifice (protocol I):
Time 12H: sacrifice (protocol II). [drawing 1]
For each of the groups, the bone marrow of the animals is collected and suspended in 2 ml of Medium 199 (EUROBIO). After the numbering and suitable dilution, 2 aliquots of 5×10^6 nucleated cells are incubated at 37° C. for 20 min. either with 1 ml of Medium 199 (Test A), or with 1 ml of tritiated thymidine (200 μCi) (Test B). A cellular suspension of 0.2 ml containing 8×10^4 to 1.2×10^5 nucleated cells is injected intravenously into the retro-orbital sinus of the irradiated receiver animals (9 Gy, 8 mice per experimental plot). Nine days later, the receiver mice are sacrificed, their spleen taken out and fixed in Bouin fluid (1% picric acid: 720 g; formol: 240 g; acetic acid: 4 g, per 1 l of fluid). After some hours of fixation, the nodules visible macroscopically are counted.
If N and N' are the average numbers of the nodules obtained on the spleens of the receivers having received cells coming form tests A and B respectively, the proportion of CFU-S in phase of DNA synthesis is calculated by the formula: [formula]

[2] = survival of animals treated with lethal doses of Ara-C; assay type: in vivo, mice; settings: Ara-C 4×925 mg/kg at 0, 7, 24 and 30 hours; tested fraction once at 26 hours
Description: The animals receive fractionated doses of Ara-C (4×925 mg/kg) at times 0, 7, 24 and 30 hours. The tested fraction is administered at once 26 hours after the first injection of Ara-C. The survival of the animals is estimated 15-30 days after the treatment.

[3] = tested on: EMT6 tumor; experiment: regression of EMT6 tumors under Ara-C plus inhibitor; assay type: in vivo, mice; settings: EMT6 tumor carriers, Ara-C at 0, 7, 24 and 30 hours, inhibitor at 26 hours
[4] = tested on: CFU-S; experiment: toxicity with respect to CFU-S; assay type: in vivo, mice; settings: at the doses used
[5] = lethality in the treated mice; assay type: in vivo; settings: at the doses used

SMILES: CC(=O)N[C@@H](CO)C(=O)N[C@@H](CC(=O)O)C(=O)N[C@@H](CCCCN)C(=O)N1CCC[C@H]1C(=O)O [inhibitor, n--acetyl-seryl-aspartyl-lysyl-proline] (Ac-SDKP-OH)
- percentages of CFU-S in phase of DNA synthesis ([1]; ARA-C + natural peptide 100 ng/mouse, bone marrow batch A (5 exp.)): 12.6 ± 14.8%
- percentages of CFU-S in phase of DNA synthesis ([1]; ARA-C + natural peptide 100 ng/mouse, bone marrow batch B (2 exp.)): 2.99 ± 13%
- percentages of CFU-S in phase of DNA synthesis, mean ([1]; ARA-C + natural peptide, mean of batches A and B): 7.8%
- % of CFU-S in DNA synthesis ([1]; Ara-C (20 mg) + inhibitor (100 ng per mouse)): 7 ± 4%
- dosage at which the fraction is active in the mouse ([1]; homogeneous fraction after reverse phase HPLC): about 100 ng/mouse
- entry of the CFU-S into DNA synthesis (S phase) ([1]; inhibitor injected 6 hours after Ara-C): prevents the entry of the CFU-S into DNA synthesis
- survival of the animals 15-30 days after the treatment [2]: enabled the definitive survival of a large number of animals
- effect on the therapeutic action of Ara-C with respect to tumor cells [3]: does not prevent the therapeutic action of Ara-C with respect to tumor cells
- survival of the treated animals ([3]; comparable with bone marrow grafting): permits the survival of the treated animals
- toxicity with respect to CFU-S [4]: devoided of toxicity with respect to CFU-S
- lethality in the treated mice [5]: does not result in any lethality

SMILES: Nc1ccn([C@@H]2O[C@H](CO)[C@@H](O)[C@@H]2O)c(=O)n1 [Ara-C, cytosine arabinoside, reference compound]
- percentages of CFU-S in phase of DNA synthesis ([1]; ARA-C alone, Table III batch A series (5 exp.)): 40.7 ± 9.3%
- percentages of CFU-S in phase of DNA synthesis ([1]; ARA-C alone, Table III batch B series (2 exp.)): 47.4 ± 9%
- percentages of CFU-S in phase of DNA synthesis, mean ([1]; ARA-C alone, mean of Table II tests 1-8): 38.7%
- percentages of CFU-S in phase of DNA synthesis, mean ([1]; ARA-C alone, mean of Table III series A and B): 44.1%
- % of CFU-S in DNA synthesis ([1]; Ara-C (20 mg) alone): 43 ± 9%

SMILES: CC(=O)N[C@@H](CO)C(=O)N[C@@H](CC(=O)O)C(=O)N[C@@H](CCCCN)C(=O)N1CCC[C@H]1C(=O)O [synthetic tetrapeptide, Ac-S-D-K-P--OH] (Ac-SDKP-OH)
- percentages of CFU-S in phase of DNA synthesis ([1]; ARA-C + synthetic tetrapeptide 25 ng/mouse, test 6, second synthesis): 19%
- percentages of CFU-S in phase of DNA synthesis ([1]; ARA-C + synthetic tetrapeptide 50 ng/mouse, test 5, second synthesis): 13%
- percentages of CFU-S in phase of DNA synthesis ([1]; ARA-C + synthetic tetrapeptide 100 ng/mouse, tests 4, 7, 8, second synthesis): 6% and 10%
- percentages of CFU-S in phase of DNA synthesis, mean ([1]; ARA-C + synthetic tetrapeptide, mean of tests 1-8 (25-100 ng/mouse)): 10.5%
- biological activity compared with the natural peptide [1]: possesses the biological properties of the natural peptide
- biological activity compared with the natural peptide ([1]; listed as synthetic peptide): quite similar activity to that obtained with a natural peptide
